Organism: Rattus norvegicus
Test: Open TG-GATES - Regimen: Daily Repeat
Type: toxicity, organism-based, Sprague-Dawley
Parameters: regimen Daily Repeat, gender Male, age 6 weeks
Conditions: in vivo, po, route gavage; for APTT / Bas / Eos / Fbg / Hb / Ht / Lym / MCH / MCHC / MCV / Mono / Neu / PT / Plat / RBC / Ret / WBC: tissue Blood; for KIDNEY_L / KIDNEY_R / KIDNEY_TOTAL: tissue Kidney; for LIVER: tissue Liver; for A/G / ALP / ALT / AST / BUN / CRE / Ca / Cl / DBIL / GLC / IP / K / LDH / Na / PL / RALB / TBIL / TC / TG / TP / gamma-GTP: tissue Plasma
[1] = 100 mg/kg, 72 h, dose level Middle, time 3 day
[2] = 100 mg/kg, […], dose level Middle, time 7 day
[3] = 100 mg/kg, […], dose level Middle, time 14 day
[4] = 100 mg/kg, […], dose level Middle, time 28 day
[5] = 300 mg/kg, 72 h, dose level High, time 3 day
[6] = 300 mg/kg, […], dose level High, time 7 day
[7] = 300 mg/kg, […], dose level High, time 14 day
[8] = 300 mg/kg, […], dose level High, time 28 day

Cc1cccc(Nc2ccccc2C(=O)O)c1C [MEFENAMIC ACID]
TERMINAL_BW [1]: 234.2 g
APTT [1]: 18.5 s
Bas [1]: 0%
Eos [1]: 1%
Fbg [1]: 242.4 mg/dL
Hb [1]: 13.5 g/dL
Ht [1]: 38.1%
Lym [1]: 79.2%
MCH [1]: 22.1 pg
MCHC [1]: 35.4%
MCV [1]: 62.4 fL
Mono [1]: 2.6%
Neu [1]: 15.6%
PT [1]: 12.1 s
Plat [1]: 122.6 x10_4/uL
RBC [1]: 611.8 x10_4/ul
Ret [1]: 5.7%
WBC [1]: 97.2 x10_2/uL
KIDNEY_L [1]: 1 g
KIDNEY_R [1]: 1 g
KIDNEY_TOTAL [1]: 2 g
LIVER [1]: 11.2 g
A/G [1]: 1.6
ALP [1]: 1044 IU/L
ALT [1]: 38.6 IU/L
AST [1]: 65.4 IU/L
BUN [1]: 14.8 mg/dL
CRE [1]: 0.4 mg/dL
Ca [1]: 10.9 mg/dL
Cl [1]: 104 meq/L
DBIL [1]: 0.098 mg/dL
GLC [1]: 189.2 mg/dL
IP [1]: 6.9 mg/dL
K [1]: 4.2 meq/L
LDH [1]: 191.6 IU/L
Na [1]: 141.8 meq/L
PL [1]: 148 mg/dL
RALB [1]: 3.4 g/dL
TBIL [1]: 0.2 mg/dL
TC [1]: 81.6 mg/dL
TG [1]: 88.2 mg/dL
TP [1]: 5.5 g/dL
gamma-GTP [1]: 1.6 IU/L
TERMINAL_BW [2]: 269.2 g
TERMINAL_BW [3]: 320.1 g
TERMINAL_BW [4]: 386.3 g
APTT [2]: 18.5 s
Bas [2]: 0%
Eos [2]: 1%
Fbg [2]: 230 mg/dL
Hb [2]: 13.6 g/dL
Ht [2]: 37.9%
Lym [2]: 80.2%
MCH [2]: 21.7 pg
MCHC [2]: 35.9%
MCV [2]: 60.6 fL
Mono [2]: 2.4%
Neu [2]: 14.4%
PT [2]: 11.9 s
Plat [2]: 121.4 x10_4/uL
RBC [2]: 626.4 x10_4/ul
Ret [2]: 5.4%
WBC [2]: 99.8 x10_2/uL
APTT [3]: 20.3 s
Bas [3]: 0%
Eos [3]: 0.8%
Fbg [3]: 246.8 mg/dL
Hb [3]: 14.4 g/dL
Ht [3]: 40.6%
Lym [3]: 76%
MCH [3]: 21.6 pg
MCHC [3]: 35.3%
MCV [3]: 61.2 fL
Mono [3]: 2.4%
Neu [3]: 18.6%
PT [3]: 12.4 s
Plat [3]: 104.3 x10_4/uL
RBC [3]: 664 x10_4/ul
Ret [3]: 4.4%
WBC [3]: 124.7 x10_2/uL
APTT [4]: 19.4 s
Bas [4]: 0%
Eos [4]: 1.2%
Fbg [4]: 261.8 mg/dL
Hb [4]: 15.8 g/dL
Ht [4]: 44.8%
Lym [4]: 75%
MCH [4]: 19.8 pg
MCHC [4]: 35.3%
MCV [4]: 56.3 fL
Mono [4]: 2.2%
Neu [4]: 20.6%
PT [4]: 12.3 s
Plat [4]: 98.4 x10_4/uL
RBC [4]: 796.8 x10_4/ul
Ret [4]: 2.3%
WBC [4]: 98.3 x10_2/uL
KIDNEY_L [2]: 1.1 g
KIDNEY_R [2]: 1.2 g
KIDNEY_TOTAL [2]: 2.2 g
KIDNEY_L [3]: 1.3 g
KIDNEY_R [3]: 1.4 g
KIDNEY_TOTAL [3]: 2.7 g
KIDNEY_L [4]: 1.4 g
KIDNEY_R [4]: 1.4 g
KIDNEY_TOTAL [4]: 2.8 g
LIVER [2]: 12 g
LIVER [3]: 14.3 g
LIVER [4]: 14.9 g
A/G [2]: 1.5
ALP [2]: 825.2 IU/L
ALT [2]: 32.8 IU/L
AST [2]: 73.2 IU/L
BUN [2]: 17 mg/dL
CRE [2]: 0.4 mg/dL
Ca [2]: 10.7 mg/dL
Cl [2]: 103.2 meq/L
DBIL [2]: 0.078 mg/dL
GLC [2]: 219.2 mg/dL
IP [2]: 6.8 mg/dL
K [2]: 3.8 meq/L
LDH [2]: 177.4 IU/L
Na [2]: 140.2 meq/L
PL [2]: 150.8 mg/dL
RALB [2]: 3.4 g/dL
TBIL [2]: 0.1 mg/dL
TC [2]: 87.2 mg/dL
TG [2]: 62.2 mg/dL
TP [2]: 5.6 g/dL
gamma-GTP [2]: 1.2 IU/L
A/G [3]: 1.4
ALP [3]: 798 IU/L
ALT [3]: 39.6 IU/L
AST [3]: 64.6 IU/L
BUN [3]: 18.2 mg/dL
CRE [3]: 0.5 mg/dL
Ca [3]: 10.6 mg/dL
Cl [3]: 103.4 meq/L
DBIL [3]: 0.086 mg/dL
GLC [3]: 208.2 mg/dL
IP [3]: 7.4 mg/dL
K [3]: 4 meq/L
LDH [3]: 138.4 IU/L
Na [3]: 140.8 meq/L
PL [3]: 149 mg/dL
RALB [3]: 3.3 g/dL
TBIL [3]: 0.2 mg/dL
TC [3]: 79 mg/dL
TG [3]: 81.8 mg/dL
TP [3]: 5.8 g/dL
gamma-GTP [3]: 1 IU/L
A/G [4]: 1.3
ALP [4]: 673 IU/L
ALT [4]: 35.4 IU/L
AST [4]: 62.4 IU/L
BUN [4]: 18 mg/dL
CRE [4]: 0.5 mg/dL
Ca [4]: 10.7 mg/dL
Cl [4]: 104.2 meq/L
DBIL [4]: 0.088 mg/dL
GLC [4]: 219.4 mg/dL
IP [4]: 6.7 mg/dL
K [4]: 3.5 meq/L
LDH [4]: 143.8 IU/L
Na [4]: 141.2 meq/L
PL [4]: 156.8 mg/dL
RALB [4]: 3.6 g/dL
TBIL [4]: 0.1 mg/dL
TC [4]: 89.8 mg/dL
TG [4]: 81.6 mg/dL
TP [4]: 6.3 g/dL
gamma-GTP [4]: 1.6 IU/L
TERMINAL_BW [5]: 221.3 g
APTT [5]: 18.9 s
Bas [5]: 0%
Eos [5]: 1%
Fbg [5]: 345 mg/dL
Hb [5]: 9.4 g/dL
Ht [5]: 28%
Lym [5]: 61.8%
MCH [5]: 21.6 pg
MCHC [5]: 33.5%
MCV [5]: 64.6 fL
Mono [5]: 3.8%
Neu [5]: 28.4%
PT [5]: 11.3 s
Plat [5]: 117.3 x10_4/uL
RBC [5]: 434.2 x10_4/ul
Ret [5]: 13.5%
WBC [5]: 154.9 x10_2/uL
KIDNEY_L [5]: 1 g
KIDNEY_R [5]: 1 g
KIDNEY_TOTAL [5]: 2 g
LIVER [5]: 11 g
A/G [5]: 1.2
ALP [5]: 624.6 IU/L
ALT [5]: 28.6 IU/L
AST [5]: 54.6 IU/L
BUN [5]: 15 mg/dL
CRE [5]: 0.4 mg/dL
Ca [5]: 10.7 mg/dL
Cl [5]: 103.4 meq/L
DBIL [5]: 0.08 mg/dL
GLC [5]: 175 mg/dL
IP [5]: 6.7 mg/dL
K [5]: 4.1 meq/L
LDH [5]: 155.2 IU/L
Na [5]: 140.2 meq/L
PL [5]: 170.6 mg/dL
RALB [5]: 2.7 g/dL
TBIL [5]: 0.1 mg/dL
TC [5]: 88.4 mg/dL
TG [5]: 161.8 mg/dL
TP [5]: 4.9 g/dL
gamma-GTP [5]: 1.2 IU/L
TERMINAL_BW [6]: 251.1 g
TERMINAL_BW [7]: 275.2 g
TERMINAL_BW [8]: 342.8 g
APTT [6]: 17.3 s
Bas [6]: 0%
Eos [6]: 1%
Fbg [6]: 304.2 mg/dL
Hb [6]: 11.1 g/dL
Ht [6]: 32.3%
Lym [6]: 63.6%
MCH [6]: 22 pg
MCHC [6]: 34.4%
MCV [6]: 64.1 fL
Mono [6]: 3.4%
Neu [6]: 28.2%
PT [6]: 11.5 s
Plat [6]: 160 x10_4/uL
RBC [6]: 506.4 x10_4/ul
Ret [6]: 14.9%
WBC [6]: 201.4 x10_2/uL
APTT [7]: 19.6 s
Bas [7]: 0%
Eos [7]: 1%
Fbg [7]: 291.8 mg/dL
Hb [7]: 11.2 g/dL
Ht [7]: 33.5%
Lym [7]: 56.8%
MCH [7]: 23.9 pg
MCHC [7]: 33.2%
MCV [7]: 71.9 fL
Mono [7]: 2.8%
Neu [7]: 37.2%
PT [7]: 11.9 s
Plat [7]: 200.5 x10_4/uL
RBC [7]: 466.8 x10_4/ul
Ret [7]: 18.8%
WBC [7]: 198.5 x10_2/uL
APTT [8]: 19 s
Bas [8]: 0%
Eos [8]: 0.8%
Fbg [8]: 318 mg/dL
Hb [8]: 10 g/dL
Ht [8]: 32.3%
Lym [8]: 54.2%
MCH [8]: 21.1 pg
MCHC [8]: 30.8%
MCV [8]: 68.5 fL
Mono [8]: 2.8%
Neu [8]: 39.2%
PT [8]: 11.6 s
Plat [8]: 186.5 x10_4/uL
RBC [8]: 473 x10_4/ul
Ret [8]: 22.3%
WBC [8]: 274.1 x10_2/uL
KIDNEY_L [6]: 1.2 g
KIDNEY_R [6]: 1.1 g
KIDNEY_TOTAL [6]: 2.3 g
KIDNEY_L [7]: 1.2 g
KIDNEY_R [7]: 1.2 g
KIDNEY_TOTAL [7]: 2.4 g
KIDNEY_L [8]: 1.4 g
KIDNEY_R [8]: 1.4 g
KIDNEY_TOTAL [8]: 2.8 g
LIVER [6]: 12.2 g
LIVER [7]: 13.3 g
LIVER [8]: 15.2 g
A/G [6]: 1.3
ALP [6]: 574.4 IU/L
ALT [6]: 29.6 IU/L
AST [6]: 60.6 IU/L
BUN [6]: 15.8 mg/dL
CRE [6]: 0.4 mg/dL
Ca [6]: 10.3 mg/dL
Cl [6]: 103.6 meq/L
DBIL [6]: 0.084 mg/dL
GLC [6]: 197.2 mg/dL
IP [6]: 7.3 mg/dL
K [6]: 3.9 meq/L
LDH [6]: 227.8 IU/L
Na [6]: 140.6 meq/L
PL [6]: 150.4 mg/dL
RALB [6]: 2.9 g/dL
TBIL [6]: 0.1 mg/dL
TC [6]: 79.4 mg/dL
TG [6]: 136.4 mg/dL
TP [6]: 5 g/dL
gamma-GTP [6]: 1 IU/L
A/G [7]: 1.2
ALP [7]: 476.5 IU/L
ALT [7]: 30 IU/L
AST [7]: 57.2 IU/L
BUN [7]: 19.2 mg/dL
CRE [7]: 0.5 mg/dL
Ca [7]: 10.4 mg/dL
Cl [7]: 104 meq/L
DBIL [7]: 0.1 mg/dL
GLC [7]: 187.5 mg/dL
IP [7]: 6.5 mg/dL
K [7]: 4.4 meq/L
LDH [7]: 145.2 IU/L
Na [7]: 141.5 meq/L
PL [7]: 162.2 mg/dL
RALB [7]: 2.9 g/dL
TBIL [7]: 0.1 mg/dL
TC [7]: 78 mg/dL
TG [7]: 170.2 mg/dL
TP [7]: 5.2 g/dL
gamma-GTP [7]: 1.8 IU/L
A/G [8]: 1.2
ALP [8]: 382.8 IU/L
ALT [8]: 30.8 IU/L
AST [8]: 68.2 IU/L
BUN [8]: 20.5 mg/dL
CRE [8]: 0.5 mg/dL
Ca [8]: 10.4 mg/dL
Cl [8]: 104.2 meq/L
DBIL [8]: 0.1 mg/dL
GLC [8]: 190.5 mg/dL
IP [8]: 6.6 mg/dL
K [8]: 3.7 meq/L
LDH [8]: 166.2 IU/L
Na [8]: 141.2 meq/L
PL [8]: 176.8 mg/dL
RALB [8]: 2.9 g/dL
TBIL [8]: 0.2 mg/dL
TC [8]: 87.2 mg/dL
TG [8]: 212 mg/dL
TP [8]: 5.3 g/dL
gamma-GTP [8]: 2 IU/L

Reference: ChEMBL document CHEMBL3885861, “Open TG-GATES”
